Measurements taken from PubChem BioAssay AID1552 (Sanford-Burnham Center for Chemical Genomics, 2009).
The source made the active and inactive calls. The rule behind the calls is not given here.

molecular target: Ubiquitin-conjugating enzyme E2 N (Homo sapiens) (UniProt P61088); assay: NMR detection of UBE2N ligand binding – biophysical, purified protein (AID 1552); details: NMR binding to purified UBE2N
Sequence (P61088 whole entry, looked up): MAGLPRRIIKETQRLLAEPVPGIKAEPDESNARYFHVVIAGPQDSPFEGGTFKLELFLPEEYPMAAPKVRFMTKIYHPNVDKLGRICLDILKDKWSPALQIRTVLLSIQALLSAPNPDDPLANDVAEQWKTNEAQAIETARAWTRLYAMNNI

| SMILES | Kd |
| --- | --- |
| O=C(COc1ccccc1)N1CCc2ccccc2C1 | > 4 mM (inactive) |
| O=C1CCNc2ccccc2N1 | > 4 mM (inactive) |
| CN(C)C(=O)Oc1cccc(-c2nnco2)c1 | > 4 mM (inactive) |
| CNc1nnc(CSc2nc(C)cc(C)n2)s1 | > 4 mM (inactive) |
| Nc1cccc(S(=O)(=O)N2CCCC2)c1 | > 4 mM (inactive) |
| CC(=O)Nc1nc(C)nc(-c2ccccc2)c1C(C)=O | > 4 mM (inactive) |
| NC(=O)Cn1nnc(-c2ccc(C(F)(F)F)cc2)n1 | > 4 mM (inactive) |
| O=S1(=O)CCC(NCCO)C1 (stereo unspecified) | > 4 mM (inactive) |
| CC(=O)NC1(NC(C)=O)CCN(C)CC1 | > 4 mM (inactive) |
| O=C(O)C1CC(C2CCCCN2)CN2CCCCC12 (stereo unspecified) | > 4 mM (inactive) |
| O=C(O)CCCc1nc2ccccc2s1 | > 4 mM (inactive) |
| COc1ccc2nc(SCC(N)=O)[nH]c2c1 | > 4 mM (inactive) |
| O=C1CSC(=NC(=O)c2ccccc2)N1 | > 4 mM (inactive) |
| Cc1cc(C)nc(/N=C(/N)N2CCOCC2)n1 | > 4 mM (inactive) |
| Cn1c(=O)c2c([nH]c(=O)n2C)n(C)c1=O | > 4 mM (inactive) |
| Cc1sc2nc(SC3CCOC3=O)[nH]c(=O)c2c1C (stereo unspecified) | > 4 mM (inactive) |
| O=C1c2ccccc2-c2ncnc3cccc1c23 | > 4 mM (inactive) |
| CSc1ccccc1NC(=O)c1ccco1 | > 4 mM (inactive) |
| Cc1ccc2c(C)c(C(=O)Nc3nnc(C)s3)oc2c1 | > 4 mM (inactive) |
| COc1c(-c2coc3cc4c(cc3c2=O)CC(O)C(C)(C)O4)ccc2c1C=CC(C)(C)O2 (stereo unspecified) | > 4 mM (inactive) |
| CSc1ccccc1NC(=O)c1c(C)noc1C | > 4 mM (inactive) |
| CC1(O)CC2C(CC1O)C2(C)C (stereo unspecified) | > 4 mM (inactive) |
| C[C@@H]1CC[C@@]23CCC4(C)[C@@](C=CC5[C@@]6(C)CC[C@H](O)C(C)(C)C6CC[C@]54C)(OC2=O)C3[C@H]1C (stereo partly specified) | > 4 mM (inactive) |
| OC1CC2CCC1C2 (stereo unspecified) | > 4 mM (inactive) |
| Nc1ncnc(NCCCO)c1[N+](=O)[O-] | > 4 mM (inactive) |
| Nc1nnc(SCc2ccc(F)cc2)s1 | > 4 mM (inactive) |

| SMILES | Kd |
| --- | --- |
| CC(=O)Oc1c2c(c(CC=C(C)C)c3c1C(=O)C1=C[C@@H]4CC5C(C)(C)OC(C/C=C(\C)C(=O)O)(C4=O)[C@@]15O3)OC(C)(CCC=C(C)C)C=C2 (stereo partly specified) | > 4 mM (inactive) |
| O=S(=O)(NCc1ccco1)c1cccc2cccnc12 | > 4 mM (inactive) |
| Cc1cc(C)n2nc(N)nc2n1 | > 4 mM (inactive) |
| c1coc(CNc2nc(-c3ccncc3)cs2)c1 | > 4 mM (inactive) |
| O=[N+]([O-])c1cccc(-c2nnco2)c1 | > 4 mM (inactive) |
| O=C(c1ccccc1)N1CCOCC1 | > 4 mM (inactive) |
| O=C(NCc1cccs1)c1nn2cccnc2c1Cl | > 4 mM (inactive) |
| NC(=O)Cc1nc2ccccc2[nH]1 | > 4 mM (inactive) |
| Cc1ccc(C)n1CCN1CCNCC1 | > 4 mM (inactive) |
| NC1=NC(=O)CC(C(=O)Nc2ccccc2)S1 (stereo unspecified) | > 4 mM (inactive) |
| Oc1ccc2nonc2c1 | > 4 mM (inactive) |
| CSc1nc(C)c(Oc2ccccc2)c(=O)n1C | > 4 mM (inactive) |
| O=C(O)c1csc(-c2cccs2)n1 | > 4 mM (inactive) |
| O=C1CCC([N+](=O)[O-])C(c2ccccc2F)N1 (stereo unspecified) | > 4 mM (inactive) |
| CC1CN=C(Nc2ccccc2)S1 (stereo unspecified) | > 4 mM (inactive) |
| COc1ccccc1C(=O)NC1CCN(C)CC1 | > 4 mM (inactive) |
| C[C@H]1CCCC(=O)CCC/C=C/c2cc(O)cc(O)c2C(=O)O1 | > 4 mM (inactive) |
| CC(=O)Oc1cc(-c2coc3cc(OC(C)=O)c(OC(C)=O)c(OC(C)=O)c3c2=O)cc(OC(C)=O)c1OC(C)=O | > 4 mM (inactive) |
| Cc1cc(=O)n2ccc(CN3CCOCC3)c(O)c2n1 | > 4 mM (inactive) |
| CSc1ccc2nnc(-c3cccnc3)n2n1 | > 4 mM (inactive) |
| CC(C)NC(=O)c1nc2ccccc2s1 | > 4 mM (inactive) |
| Cc1cc(O)c2c(c1)C(=O)c1cccc(O)c1C2=O | > 4 mM (inactive) |
| O=C(Nc1ccccc1F)c1ccncc1 | > 4 mM (inactive) |
| NC(=O)C12CC3CC(C1)C(=O)C(C3)C2 | > 4 mM (inactive) |
| NC1=C(c2ccccc2)C(=O)c2ccccc21 | > 4 mM (inactive) |
| CC(=O)Nc1cccc(-c2n[nH]c(=S)n2C)c1 | > 4 mM (inactive) |

| SMILES | Kd |
| --- | --- |
| O=C1NC(=O)/C(=C\c2ccncc2)S1 | > 4 mM (inactive) |
| O=C(NCc1ccccc1)c1ccc[n+]([O-])c1 | > 4 mM (inactive) |
| NC(=O)c1cccc(N2C(=O)C=CC2=O)c1 | > 4 mM (inactive) |
| CC1(C)C=Cc2cc3ccc(=O)oc3cc2O1 | > 4 mM (inactive) |
| NC(=O)C1CCN(C(=O)c2ccccc2)CC1 | > 4 mM (inactive) |
| CC(=O)OC(C)(C)[C@@H]1Cc2cc3ccc(=O)oc3cc2O1 | > 4 mM (inactive) |
| Cn1cc(C(=O)N/N=C/c2ccccc2)ccc1=O | > 4 mM (inactive) |
| COc1ccc2c(c1)C(NC(C)=O)C(=O)N2C (stereo unspecified) | > 4 mM (inactive) |
| c1ccc(CCNc2ncnc3nc[nH]c23)cc1 | > 4 mM (inactive) |
| Cc1nn2c(-c3ccncc3)nnc2c2ccccc12 | > 4 mM (inactive) |
| O=C1c2ccncc2C(=O)N1CNc1ccccn1 | > 4 mM (inactive) |
| NC(=O)c1ccc(-c2csnn2)cc1 | > 4 mM (inactive) |
| Cc1nnc(SCC(=O)NCc2ccccc2)[nH]c1=O | > 4 mM (inactive) |
| Cc1cc(C)cc(C(=O)n2cnnc2N)c1 | > 4 mM (inactive) |
| NC(=O)c1cc2c(n(-c3ccccc3)c1=O)CCCC2=O | > 4 mM (inactive) |
| CCCCn1c(=O)cc(O)c2ccccc21 | > 4 mM (inactive) |
| CN(C)c1ccc(NC(=O)CC(C(=O)O)N(C)C)cc1 (stereo unspecified) | > 4 mM (inactive) |
| O=C(/C=C/c1ccccc1)c1ccc(O)cc1 | > 4 mM (inactive) |
| O=C(CSc1ncccn1)NCc1ccco1 | > 4 mM (inactive) |
| Cc1cc2cc(N)ccc2[nH]1 | > 4 mM (inactive) |
| Cc1csc(SCC(=O)N2CCCC2)n1 | > 4 mM (inactive) |
| O=C1CSC(=S)N1Cc1cccnc1 | > 4 mM (inactive) |
| O=C1NC(=Nc2ccccc2)S/C1=C/c1cccnc1 | > 4 mM (inactive) |
| COC(=O)c1ccc2nccnc2c1 | > 4 mM (inactive) |
| Cc1cc(=O)[nH]c(N2CCCCC2)n1 | > 4 mM (inactive) |
| Cc1ccc(CN2CCNC(=O)C2CC(=O)O)o1 (stereo unspecified) | > 4 mM (inactive) |

| SMILES | Kd |
| --- | --- |
| CSc1n[nH]c(NCc2ccccc2)n1 | > 4 mM (inactive) |
| NC1=NC(=O)C(CC(=O)Nc2ccccc2F)S1 (stereo unspecified) | > 4 mM (inactive) |
| COc1cc(CNC(=O)CCCC/C=C/C(C)C)ccc1O | > 4 mM (inactive) |
| C=CCn1c(-c2ccc(O)cc2)n[nH]c1=S | > 4 mM (inactive) |
| CC1CN(C2=NCCN2)CC(C)O1 (stereo unspecified) | > 4 mM (inactive) |
| O=C(O)c1ccccc1N1CCOCC1 | > 4 mM (inactive) |
| Cc1cc2c(N)cccc2nn1 | > 4 mM (inactive) |
| NC1=NC(=O)/C(=C\c2ccccc2)S1 | > 4 mM (inactive) |
| Cc1cc(C)c(C(N)=O)c(=S)[nH]1 | > 4 mM (inactive) |
| Nc1[nH]c(=S)ncc1S(=O)(=O)c1ccccc1 | > 4 mM (inactive) |
| O=C(c1cc(Cl)cc(Cl)c1)N1CCOCC1 | > 4 mM (inactive) |
| COc1ccc(-c2cc3nc4n(c(=O)c3s2)CCC4)cc1 | > 4 mM (inactive) |
| O=c1c(O)c(-c2ccc(O)c(O)c2)oc2cc(O)ccc12 | > 4 mM (inactive) |
| CCOc1ccc(-c2c(=O)n(O)c3ccccc3[n+]2[O-])cc1 | > 4 mM (inactive) |
| O=C(O)c1cc(=O)[nH]c2ccccc12 | > 4 mM (inactive) |
| CCOC(=O)c1cc(C)[nH]n1 | > 4 mM (inactive) |
| NCc1ccc(-c2ccccn2)s1 | > 4 mM (inactive) |
| COc1cc2occc2c2oc(=O)ccc12 | > 4 mM (inactive) |
| Cc1nc2ccccc2c(=O)n1N1C(=O)CCCC1=O | > 4 mM (inactive) |
| CC(C)(C)c1cc(N)n[nH]1 | > 4 mM (inactive) |
| CCN1CCC(=NO)CC1 | > 4 mM (inactive) |
| NCc1cccc(-n2cccc2)c1 | > 4 mM (inactive) |
| COc1ccc2c(c1)=C(c1sc(N)nc1O)C(=O)N=2 | > 4 mM (inactive) |
| Cn1ccnc1C(O)c1ccccc1 (stereo unspecified) | > 4 mM (inactive) |
| CC(=O)NN1C(=O)/C(=C\c2ccc(O)cc2)SC1=S | > 4 mM (inactive) |
| O=C(O)CNCC(O)Cn1c2ccccc2c2ccccc21 (stereo unspecified) | > 4 mM (inactive) |

| SMILES | Kd |
| --- | --- |
| COC(=O)Cc1cccc(OC)c1 | > 4 mM (inactive) |
| Cn1nc(C(=O)NC2CCCCC2)c2ccccc2c1=O | > 4 mM (inactive) |
| Cc1ccc2nc(NC(=O)CN3CCOCC3)sc2c1 | > 4 mM (inactive) |
| O=C1CCC(=O)N1c1cccnc1 | > 4 mM (inactive) |
| O=C(NC(=S)NC1CCS(=O)(=O)C1)c1ccccc1 (stereo unspecified) | > 4 mM (inactive) |
| NC(=O)c1cccnc1Oc1ccccc1 | > 4 mM (inactive) |
| O=c1ccc2ccc(O)cc2o1 | > 4 mM (inactive) |
| NCc1cn2ccccc2n1 | > 4 mM (inactive) |
| Cc1cc(O)c2c(c1O)C(=O)c1c(O)cc(C)c(O)c1C2=O | > 4 mM (inactive) |
| Cc1c(C(=O)Nc2ccccc2)sc(N)c1C(N)=O | > 4 mM (inactive) |
| CC(=O)Nc1ccc(CN2CCOCC2)cc1 | > 4 mM (inactive) |
| Cn1cccc1C(=S)N1CCOCC1 | > 4 mM (inactive) |
| Cc1noc(C)c1C(=O)Nc1ccccn1 | > 4 mM (inactive) |
| Cc1cc(C(F)(F)F)nn1CC(N)=O | > 4 mM (inactive) |
| CCOC(=O)C1CCN(c2ccc(C#N)cc2)CC1 | > 4 mM (inactive) |
| S=C(c1cccnc1)N1CCOCC1 | > 4 mM (inactive) |
| O=S1(=O)CCC(NCc2ccccc2)C1 (stereo unspecified) | > 4 mM (inactive) |
| O=S1(=O)CCC2CC=CCC21 (stereo unspecified) | > 4 mM (inactive) |
| O=C(O)c1onc2ccccc12 | > 4 mM (inactive) |
| CCCCCCCCCCCCCCCCCCOCC(O)CO (stereo unspecified) | > 4 mM (inactive) |
| NC1CSCC1O (stereo unspecified) | > 4 mM (inactive) |
| O=C(CN1C(=O)CCC1=O)c1ccccc1 | > 4 mM (inactive) |
